In US8969335B2, “Benzonitrile derivatives as kinase inhibitors” (MERCK PATENT GmbH, priority 2011, dated 2015):

Legend:
[1] = biological target: TANK binding kinase (TBK1) (Homo sapiens (Human), UniProt Q9UHD2); experiment: TBK1 enzyme assay (384-well flashplate kinase assay); assay type: biochemical; details: 0.6 nM TBK1, 10 μM ATP, 30° C., 120 min
IKKε = IKKε (Homo sapiens (Human), UniProt Q14164); experiment: IKKε kinase assay (384-well flashplate assay); assay type: biochemical; details: 1 nM IKKε, 10 μM ATP, 30° C., 2 hours; read-out: IKKε enzyme assay IC50
Procedure, shortened: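 Recombinant IKKε (1 nM) phosphorylates biotinylated IκBα(19-42) peptide (800 nM) with 10 μM ATP spiked with ^33P-ATP, 2 h at 30° C in MOPS buffer pH 7.5. Stopped with EDTA, captured on flashplate, radioactivity counted; nonspecific signal defined with 3 μM BX-795; IC50 derived.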

[2] = system: TBK1 + IKKε (phospho-IRF3 @ Ser 386, MDA-MB-468 cells); experiment: TBK1 + IKKε cell assay: dose response inhibition of phospho-IRF3 @ Ser 386 in MDA-MB-468 cells; assay type: cell-based; details: Homo sapiens, poly(I:C) stimulation, nuclear phospho-IRF3, read-out: TBK1 + IKKε cell assay IC50

Sequence of TANK binding kinase (TBK1) (Q9UHD2 whole entry): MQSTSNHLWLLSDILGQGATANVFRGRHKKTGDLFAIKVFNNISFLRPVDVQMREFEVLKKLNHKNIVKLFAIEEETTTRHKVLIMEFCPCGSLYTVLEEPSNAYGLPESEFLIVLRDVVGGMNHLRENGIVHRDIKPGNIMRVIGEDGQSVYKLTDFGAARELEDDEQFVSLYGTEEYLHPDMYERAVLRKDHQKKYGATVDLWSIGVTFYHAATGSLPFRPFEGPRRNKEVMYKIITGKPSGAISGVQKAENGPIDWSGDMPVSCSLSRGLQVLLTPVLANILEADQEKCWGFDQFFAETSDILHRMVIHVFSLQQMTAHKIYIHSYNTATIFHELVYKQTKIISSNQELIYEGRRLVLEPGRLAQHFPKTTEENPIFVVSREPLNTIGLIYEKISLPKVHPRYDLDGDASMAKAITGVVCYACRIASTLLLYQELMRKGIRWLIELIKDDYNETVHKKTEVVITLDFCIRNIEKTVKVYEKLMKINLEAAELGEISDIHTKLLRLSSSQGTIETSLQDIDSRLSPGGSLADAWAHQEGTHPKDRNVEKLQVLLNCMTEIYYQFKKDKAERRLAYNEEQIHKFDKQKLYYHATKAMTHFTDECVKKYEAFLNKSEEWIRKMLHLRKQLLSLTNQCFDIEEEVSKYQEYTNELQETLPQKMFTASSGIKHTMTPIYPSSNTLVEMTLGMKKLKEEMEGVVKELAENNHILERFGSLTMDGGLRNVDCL
Sequence of IKKε (Q14164 whole entry): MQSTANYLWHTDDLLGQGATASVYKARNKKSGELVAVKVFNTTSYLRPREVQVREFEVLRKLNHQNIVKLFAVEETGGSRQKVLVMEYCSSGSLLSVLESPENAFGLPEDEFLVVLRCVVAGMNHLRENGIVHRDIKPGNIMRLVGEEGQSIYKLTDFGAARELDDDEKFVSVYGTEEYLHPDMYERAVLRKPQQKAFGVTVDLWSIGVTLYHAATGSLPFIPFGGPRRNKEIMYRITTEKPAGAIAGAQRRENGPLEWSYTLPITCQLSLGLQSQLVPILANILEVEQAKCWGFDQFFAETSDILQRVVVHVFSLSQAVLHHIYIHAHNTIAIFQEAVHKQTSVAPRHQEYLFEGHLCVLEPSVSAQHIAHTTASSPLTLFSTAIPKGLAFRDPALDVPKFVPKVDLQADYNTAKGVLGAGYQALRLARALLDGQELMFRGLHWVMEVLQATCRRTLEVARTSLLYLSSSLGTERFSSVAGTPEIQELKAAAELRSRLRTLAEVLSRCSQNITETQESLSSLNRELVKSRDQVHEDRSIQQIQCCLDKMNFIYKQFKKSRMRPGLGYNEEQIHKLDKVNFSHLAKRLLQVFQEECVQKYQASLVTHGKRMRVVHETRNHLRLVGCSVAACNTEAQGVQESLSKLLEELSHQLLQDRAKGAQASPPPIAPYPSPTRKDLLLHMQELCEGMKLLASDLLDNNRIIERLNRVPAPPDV

Structure (SMILES) | IC50 [1] | IC50 (IKKε) | IC50 [2]
N#Cc1cc(-c2ccnc(Nc3cnn(CCO)c3)c2)ccc1OC1CCOCC1 [Compound A79, 5-{2-[1-(2-hydroxyethyl)-1H-pyrazol-4-ylamino]pyridin-4-yl}-2-(tetrahydropyran-4-yloxy)benzonitrile] | 120 nM | 91 nM | 4900 nM
N#Cc1cc(-c2ccnc(Nc3ccc(-c4cn[nH]c4)cn3)c2)ccc1OC1CCOCC1 [Compound A9, 5-{2-[5-(1H-Pyrazol-4-yl)pyridin-2-ylamino]pyridin-4-yl}-2-(tetrahydropyran-4-yloxy)benzonitrile] | 120 nM | 100 nM | 3000 nM
N#Cc1ccc(Nc2cc(-c3ccc(OC4CCOCC4)c(C#N)c3)ccn2)nc1 [Compound A11, 6-{4-[3-Cyano-4-(tetrahydropyran-4-yloxy)phenyl]pyridin-2-ylamino}nicotinonitrile] | 250 nM | 240 nM | 5200 nM
N#Cc1cc(-c2ccnc(Nc3cnn(CCN4CCCC4)c3)n2)ccc1OC1CCOCC1 [Compound A83, 5-{2-[1-(2-pyrrolidin-1-ylethyl)-1H-pyrazol-4-ylamino]pyrimidin-4-yl}-2-(tetrahydropyran-4-yloxy)benzonitrile] | 60 nM | 88 nM | 5300 nM
N#Cc1cc(-c2ccnc(Nc3cnn(CCC4CCN(C(=O)CO)CC4)c3)c2)ccc1OC1CCOCC1 [Compound A29, 5-[2-(1-{2-[1-(2-Hydroxyacetyl)piperidin-4-yl]ethyl}-1H-pyrazol-4-ylamino)pyridin-4-yl]-2-(tetrahydropyran-4-yloxy)benzonitrile] | 120 nM | 88 nM | 6700 nM
N#Cc1cc(-c2ccnc(Nc3cnn(C4CCNC4)c3)c2)ccc1OC1CCOCC1 (stereo not drawn) [Compound A28, 5-[2-(1-Pyrrolidin-3-yl-1H-pyrazol-4-ylamino)pyridin-4-yl]-2-(tetrahydropyran-4-yloxy)benzonitrile] | 280 nM | 74 nM | 23000 nM
CN1CCC(n2cc(Nc3cc(-c4ccc(OC5CCOCC5)c(C#N)c4)ccn3)cn2)CC1 [Compound A2, 5-{2-[1-(1-Methylpiperidin-4-yl)-1H-pyrazol-4-yl-amino]pyridin-4-yl}-2-(tetrahydropyran-4-yloxy)benzonitrile] | 83 nM | 20 nM | 960 nM
N#Cc1cc(-c2ccnc(Nc3cnn(CCC4CCNCC4)c3)c2)ccc1OC1CCOCC1 [Compound A21, 5-{2-[1-(2-Piperidin-4-ylethyl)-1H-pyrazol-4-ylamino]pyridin-4-yl}-2-(tetrahydropyran-4-yloxy)benzonitrile] | 70 nM | 37 nM | 5300 nM
Cn1ccc(Nc2cc(-c3ccc(OC4CCOCC4)c(C#N)c3)ccn2)n1 [Compound A5, 5-[2-(1-Methyl-1H-pyrazol-3-ylamino)pyridin-4-yl]-2-(tetrahydropyran-4-yloxy)benzonitrile] | 97 nM | 110 nM | 2900 nM
N#Cc1cc(-c2ccnc(Nc3ncc(C4CCNCC4)cn3)c2)ccc1OC1CCOCC1 [Compound A66, 5-[2-(5-piperidin-4-ylpyrimidin-2-ylamino)pyridin-4-yl]-2-(tetrahydropyran-4-yloxy)benzonitrile] | 100 nM | 82 nM | 4900 nM
N#Cc1cc(-c2ccnc(Nc3cnn(CCN4CCOCC4)c3)c2)ccc1OC1CCOCC1 [Compound A22, 5-{2-[1-(2-Morpholin-4-ylethyl)-1H-pyrazol-4-ylamino]pyridin-4-yl}-2-(tetrahydropyran-4-yloxy)benzonitrile] | 100 nM | 150 nM | 9600 nM

Compounds with a lower IC50 [1], results first:

IC50 [1] | IC50 (IKKε) | IC50 [2] | Structure (SMILES)
2 nM | 1 nM | 1600 nM | N#Cc1cc(-c2ccnc(Nc3cc(C4CCNCC4)ccn3)c2)ccc1OC1CCOCC1 [Compound A74, 5-[2-(1′,2′,3′,4′,5′,6′-hexahydro-[4,4′]bipyridinyl-2-ylamino)pyridin-4-yl]-2-(tetrahydropyran-4-yloxy)benzonitrile]
14 nM | 10 nM | 350 nM | CN(C)Cc1ccnc(Nc2cc(-c3ccc(OC4CCOCC4)c(C#N)c3)ccn2)c1 [Compound A81, 5-[2-(4-dimethyl-aminomethylpyridin-2-ylamino)pyridin-4-yl]-2-(tetrahydropyran-4-yloxy)benzonitrile]
21 nM | 43 nM | 1200 nM | CC(C)(C)c1cc(Nc2cc(-c3ccc(OC4CCOCC4)c(C#N)c3)ccn2)n[nH]1 [Compound A10, 5-[2-(5-tert-Butyl-1H-pyrazol-3-ylamino)pyridin-4-yl]-2-(tetrahydropyran-4-yloxy)benzonitrile]
3 nM | 4 nM | 500 nM | N#Cc1cc(-c2ccnc(Nc3cnn(CCO)c3)n2)ccc1OC1CCOCC1 [Compound A75, 5-{2-[1-(2-hydroxyethyl)-1H-pyrazol-4-ylamino]pyrimidin-4-yl}-2-(tetrahydropyran-4-yloxy)benzonitrile]
5 nM | 8 nM | 390 nM | N#Cc1cc(-c2ccnc(Nc3cnc(C4CCOCC4)cn3)c2)ccc1OC1CCOCC1 [Compound A98, 2-(tetrahydropyran-4-yloxy)-5-{2-[5-(tetrahydropyran-4-yl)pyrazin-2-yl-amino]pyridin-4-yl}benzonitrile]
10 nM | 7 nM | 840 nM | N#Cc1cc(-c2ccnc(Nc3cnc(C4CCNCC4)cn3)c2)ccc1OC1CCOCC1 [Compound A72, 5-[2-(5-piperidin-4-ylpyrazin-2-ylamino)pyridin-4-yl]-2-(tetrahydropyran-4-yloxy)benzonitrile]
14 nM | 18 nM | 980 nM | N#Cc1cc(-c2ccnc(Nc3cnn(CCO)c3)n2)ccc1OCC1CCC1 [Compound A94, 2-cyclobutylmethoxy-5-{2-[1-(2-hydroxyethyl)-1H-pyrazol-4-ylamino]pyrimidin-4-yl}benzonitrile]
11 nM | 39 nM | 2100 nM | N#Cc1cc(-c2ccnc(Nc3cnn([C@H]4CC[C@@H](O)CC4)c3)n2)ccc1OCC1CCC1 [Compound A97, 2-cyclobutylmethoxy-5-{2-[1-(4-hydroxycyclohexyl)-1H-pyrazol-4-ylamino]-pyrimidin-4-yl}benzonitrile]
3 nM | 5 nM | 440 nM | N#Cc1cc(-c2ccnc(Nc3cnn([C@H]4CC[C@H](O)CC4)c3)n2)ccc1OC1CCOCC1 [Compound A101, 5-{2-[1-(4-hydroxycyclohexyl)-1H-pyrazol-4-ylamino]pyrimidin-4-yl}-2-(tetrahydropyran-4-yloxy)benzonitrile]
6 nM | 6 nM | 230 nM | N#Cc1cc(-c2ccnc(Nc3cnn(C4CCNCC4)c3)n2)ccc1OC1CCOCC1 [Compound A64, 5-[2-(1-piperidin-4-yl-1H-pyrazol-4-ylamino)pyrimidin-4-yl]-2-(tetrahydropyran-4-yloxy)-benzonitrile]
8 nM | 15 nM | 350 nM | N#Cc1cc(-c2ccnc(Nc3ccc(N4CCOCC4)cn3)c2)ccc1OC1CCOCC1 [Compound A7, 5-[2-(5-Morpholin-4-ylpyridin-2-ylamino)pyridin-4-yl]-2-(tetrahydropyran-4-yloxy)benzonitrile]
